Data: US12357695B2, “Peptides and nanoparticles for intracellular delivery of molecules” (AADIGEN, LLC, priority 2019, dated 2025)
Square brackets hold non-standard residues; d marks the D form. Ends that are not written are not given here. Stearyl = stearyl group covalently linked to the N-terminus; Aun = NCCCCCCCCCCC(=O)O; βAla = NCCC(=O)O

Assays:
[1] = tested on: A375/Luc cells; experiment: Cellular delivery of siRNA targeting Luciferase, luciferase silencing at 48 hrs; assay type: cell-based; details: for reduction of ADGN-100 or ADGN-106 efficiency by modification / reduction of level of luciferase (siRNA mediated silencing): absence of serum treatment; for reduction of efficiency / siRNA mediated luciferase silencing in the presence of serum: complexes incubated 3 hrs in 25% serum; for reduction of luciferase expression level: presence of serum
Protocol: FIGS. 3A-3C show luciferase expression in A375/Luc cells treated with ADGN-peptide/siRNA complexes. A375/Luc cells cultured in 48 well plates were transfected with ADGN-peptide nanoparticles. ADGN-100, ADGN-106, ADGN-100RI, ADGN-106RI, ADGN-100 Stearyl, ADGN-Hydro1, ADGN-Hydro2, ADGN-Hydro3, ADGN-Hydro4, ADGN-Hydro5, ADGN-Hydro6 and ADGN-peptide/ADGN-100PEG 10% nanoparticles containing 10 nM or 25 nM siRNA were formed in sterile water, diluted in sterile water containing 5% Sucrose and filtered with 0.45 μm PES filters. FIG. 3C impact of peGylated ADGN-100 on the transfection efficiency. siRNA Luc (10 nM and 25 nM) were associated to ADGN-100 solution containing 5 to 50% of ADGN-100-PEG or to ADGN-100PEG. ADGN/siRNA complexes were incubated for 3 hrs in the presence of 25% serum prior transfection. Luciferase expression was monitored 48 hours post transfection and results were reported as RLU (luminescence):mg of protein.
(§1) Complex formation with siRNA. The following protocols were used for the transfection of 2-5 106 Cells or Cells at confluency of about 70-80% cultured in 24 well plates. ADGN peptide/siRNA Luc particles were prepared at a 20:1 molar ratio of ADGN-Peptide/pGL4. using 20 nM siRNA. The siRNA duplex (10 and 25 nM) was diluted in 20 μl of sterile water (GIBCO) at room temperature. 1.5 or 3 μl of a Final Peptide Solution (55 μM) was added to obtain a total volume of 20 μl. The volume was adjusted to 50 μl with sterile water and was mixed gently with vortex 1 min low speed and incubated 30 min at room temperature. Then the volume was made up to 100 μl by adding sterile water containing 5% sucrose, and the solution was mixed gently with vortex 1 min low speed and incubate 5 min at 37° C. and then was proceeded to cell transfection.
Transfection protocol. Protocol is reported for 24 well plate format. Cells were cultured in Dulbecco's Modified Eagle's Medium (DMEM), supplemented with 2 mM glutamine, 1% antibiotics (streptomycin 10,000 μg/mL, penicillin, 10,000 IU/mL) and 10% (w/v) foetal calf serum (FCS), at 37° C. in a humidified atmosphere containing 5% CO2. 24 well plates seeded with 150,000 cells the day prior to transfection were grown to 50-60% confluence and set up to be at about 70% confluences at the time of transfection. Before transfection, cells were washed twice with DMEM. Cells were then overlaid with 0.1 ml of ADGN-peptide/cargo complex solution containing 0.25 μg mRNA, 0.15 μg plasmid DNA or 10-25 nM siRNA, mixed gently, and incubated for 10 min at 37° C. 0.2 mL of fresh DMEM, were added and cells were incubated for 20 min at 37° C. 1 mL of complete DMEM containing 15% FCS were then added in order to reach a final FCS concentration of 10%, without removing the overlay of ADGN-peptide/cargo complexes. Cells were returned to the incubator (37° C., 5% CO2) and 72 hrs post transfection.
ADGN-peptides were evaluated for cellular delivery of siRNA duplex targeting Luciferase in A375/Luc cells. siRNA targeting luciferase (10 and 25 nM) in sterile water (GIBCO) were mixed with ADGN-100, ADGN-100RI, ADGN-106, ADGN-106RI, ADGN-100 Stearyl, ADGN-100Hydro1, ADGN-100Hydro2, ADGN-100Hydro4, ADGN-100Hydro3, ADGN-100Hydro5 and ADGN-100Hydro6. ADGN-peptide/siRNA complexes were filtered with 0.45 μm PES filter. In order to evaluate the stability of the ADGN/siRNA complexes in high serum conditions, the complexes were incubated for 3 hrs in the presence of 25% serum, then A375/Luc cells were transfected and Luciferase expression was monitored at 48 hrs.

[2] = DLS particle size and level of aggregation of ADGN-peptide/pGL4 plasmid DNA complexes; assay type: physicochemical; details: pGL4 5.6 kb plasmid
Protocol: as §1, with “plasmid DNA.” for “siRNA.”, “peptide/plasmid DNA pGL4” for “peptide/siRNA Luc”, “(0.2 μg). PGL4 plasmid (0.15 μg)” for “20 nM siRNA. The siRNA duplex (10 and 25 nM)”, “10” for “1.5 or 3”, “μl” for “μl of a”, “Solution” for “Solution (55 μM)”
The ability of the different ADGN-peptides to form stable nanoparticles with DNA pGL4 a 5.6KpB plasmid expression Luciferase was analyzed. The particle sizes and level of aggregation were measured on DLS NanoZS (Malvern Ltd). The mean size and the polydispersity of the ADGN/plasmid DNA complexes were determined at 25° C. for 3 minute per measurement. In order to remove large particles, ADGN/plasmid DNA complexed were filtered using either PES or PVDF 0.45 μm filters. Data are shown in FIG. 10 for a mean of 3 separate experiments.

| Substance | reduction of ADGN-100 or ADGN-106 efficiency by modification [1] | reduction of efficiency / siRNA mediated luciferase silencing in the presence of serum [1] | ability to form stable nanoparticles/complex with plasmid DNA [2] | reduction of luciferase expression level ([1]; 10 nM siRNA) [%] | reduction of luciferase expression level ([1]; 25 nM siRNA) [%] | reduction of level of luciferase (siRNA mediated silencing) ([1]; 10 nM siRNA) [%] | reduction of level of luciferase (siRNA mediated silencing) ([1]; 25 nM siRNA) [%] |
| --- | --- | --- | --- | --- | --- | --- | --- |
| Ac-GYVS-Aun-KWRSALWRWRLWRVRSWSR-NH2 (Ac-GYVS[Aun]KWRSALWRWRLWRVRSWSR-NH2; SMILES CC(=O)NCC(=O)N[C@@H](Cc1ccc(O)cc1)C(=O)N[C@H](C(=O)N[C@@H](CO)C(=O)NCCCCCCCCCCC(=O)N[C@@H](CCCCN)C(=O)N[C@@H](Cc1c[nH]c2ccccc12)C(=O)N[C@@H](CCCNC(=N)N)C(=O)N[C@@H](CO)C(=O)N[C@@H](C)C(=O)N[C@@H](CC(C)C)C(=O)N[C@@H](Cc1c[nH]c2ccccc12)C(=O)N[C@@H](CCCNC(=N)N)C(=O)N[C@@H](Cc1c[nH]c2ccccc12)C(=O)N[C@@H](CCCNC(=N)N)C(=O)N[C@@H](CC(C)C)C(=O)N[C@@H](Cc1c[nH]c2ccccc12)C(=O)N[C@@H](CCCNC(=N)N)C(=O)N[C@H](C(=O)N[C@@H](CCCNC(=N)N)C(=O)N[C@@H](CO)C(=O)N[C@@H](Cc1c[nH]c2ccccc12)C(=O)N[C@@H](CO)C(=O)N[C@@H](CCCNC(=N)N)C(N)=O)C(C)C)C(C)C) [ADGN-100 hydro-6] | do not affected | 20% |  |  |  |  |  |
| Stearyl-βA-KWRSALWRWRLWRVRSWSR-NH2 (Stearyl-[βAla]KWRSALWRWRLWRVRSWSR-NH2; not fully specified; printed as Stearyl-βA-KWRSALWRWRLWRVRSWSR-NH2) [ADGN-100 Stearyl] | do not affected | 20% |  |  |  |  |  |
| akwllrwlsrwlrwlarwlr ([dA][dK][dW][dL][dL][dR][dW][dL][dS][dR][dW][dL][dR][dW][dL][dA][dR][dW][dL][dR]; also: retro-inverso) [ADGN-106-RI] | do not affected | not affected by the presence of serum | did not improve the potency of ADGN-106 to form stable particle with plasmid | 77 | 95 |  |  |
| rswsrvrwlrwrwgasrwk ([dR][dS][dW][dS][dR][dV][dR][dW][dL][dR][dW][dR][dW]G[dA][dS][dR][dW][dK]; also: retro-inverso) [ADGN-100-RI] | do not affected | not affected by the presence of serum | did not modifie the ability of the peptide to form stable complex with plasmid DNA | 77 | 95 |  |  |
| βAKWRSAGWRWRLW RVRSWSR (AKWRSAGWRWRLWRVRSWSR; N-terminal beta-alanine; VARIANT 1 beta-A) [ADGN-100] |  | 90% |  |  |  | 78 | 93 |
| βALWRALWRLWRSLWRLLWKA ([βAla]LWRALWRLWRSLWRLLWKA) [ADGN-106] |  | 90% | large size and a the poor stability |  |  | 78 | 93 |
